These results are taken from article PMC10854695, “Using Flavonoid Substitution Status to Predict Anticancer Effects in Human Melanoma Cancers: An In Vitro Study” (Cancers, 2024).

The structures appear in SMILES notation.

Data set [1] has as its system C32 melanoma cells. Briefly: MTT cell viability assay, C32.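 Also: MTT added for 2 h, cells lysed in DMSO, absorbance read at 570 nm, compound vehicle kept at or below 0.1% DMSO.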 As to conditions: Homo sapiens, read-out: IC50, cytotoxic activity, MTT test. On the technique in general: Tetrazolium assays rely on reduction of a dye to a coloured formazan, in cell work by metabolically active cells.
Method: (§1) The MTT colorimetric assay was performed as a preliminary evaluation of the cytotoxicity of the selected flavonoids according to the method described and validated by Strawa et al. [21]. Briefly, melanoma cells and fibroblasts were seeded in 96-well microplates at a density of 1 × 10^4 cells per well. Fibroblasts were used as a control cell line in order to assess the selectivity of the compounds. […] Subsequently, the cells were washed with PBS, incubated with MTT solution for 2 h, and lysed with dimethyl sulfoxide (DMSO) supplemented with 1% (v/v) Sorensen’s glycine buffer. The absorbance was measured using a microplate reader (EPOCH 2, BioTek, Winooski, VT, USA) at a wavelength of 570 nm. The compounds were used at a final DMSO concentration of no more than 0.1% (v/v) in each well. The results were generated from at least three independent experiments. […] The IC50 values were calculated with GraphPad Prism 9 software (GraphPad Software, San Diego, CA, USA).
Data set [2] relates to A375 melanoma cells. The data set is described as follows: MTT cell viability assay, A375.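 Also: Read-out is formazan absorbance at 570 nm after 2 h with MTT, with compounds in at most 0.1% v/v DMSO.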 Conditions: Homo sapiens.
Method: as §1
Data set [3] has as its system C32 melanoma cells. The data set is described as follows: Neutral red uptake (NRU) assay, C32. As to conditions: Homo sapiens.
Method: The NRU (neutral red uptake) was conducted as previously described by Szoka and co-workers, with some modifications [22]. Briefly, melanoma cells and fibroblasts were seeded in microplates at the density of 1 × 10^4 cells per well and allowed to adhere for 24 h. […] After treatment, the culture medium was replaced with a neutral red solution (40 µg/mL). An additional 2 h of incubation was performed. The neutral red solution was then removed and the neutral red accumulated in the cells was dissolved in 50% EtOH with 1% of the glacial acetic acid. The absorbance was estimated at 540 nm and IC50 values were calculated using GraphPad Prism software (GraphPad Software, San Diego, CA, USA).
The subject of data set [4] is A375 melanoma cells. Briefly: Neutral red uptake (NRU) assay, A375. Conditions: Homo sapiens, read-out: IC50, cytotoxic activity, NRU assay.
Data set [5] can be described thus: MTT cell viability assay, normal cells.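 Also: fibroblasts served as non-cancer comparison line for selectivity versus melanoma cells, MTT reduction read as absorbance at 570 nm after 2 h dye exposure, compounds in ≤0.1% DMSO.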 Conditions: human.
Data set [6] in a line: Neutral red uptake (NRU) assay, normal cells. As to conditions: human.
The mark [7] stands for this setting: A-375, 24 h, read-out: IC50, cytotoxic activity, MTT test, A375, 24 h.
Where [8] appears, read: A-375, 48 h, read-out: IC50, cytotoxic activity, MTT test, A375, 48 h.
The mark [9] stands for this setting: A-375, 72 h, read-out: IC50, cytotoxic activity, MTT test, A375, 72 h.
Where [10] appears, read: C32, 24 h, read-out: IC50, cytotoxic activity, NRU assay, C32, 24 h.
Setting [11] is: C32, 48 h, read-out: IC50, cytotoxic activity, NRU assay, C32, 48 h.
The mark [12] stands for this setting: C32, 72 h, read-out: IC50, cytotoxic activity, NRU assay, C32, 72 h.
Where [13] appears, read: human skin fibroblasts (CCD25Sk).

One may read the IC50 as the concentration needed to halve the response being measured. In the case of `COc1ccc(C2CC(=O)c3c(O)cc(OC4OC(COC5OC(C)C(O)C(O)C5O)C(O)C(O)C4O)cc3O2)cc1O` (stereo not drawn) [Compound 34, hesperetin 7-O-rutinoside], the IC50 was above 200 µM in data set [1] (C32, 24 h); above 200 µM in data set [1] (C32, 48 h); above 200 µM in data set [1] (C32, 72 h); above 200 µM in data set [2] (setting [7]); above 200 µM in data set [2] (setting [8]); above 200 µM in data set [2] (setting [9]). For the same compound, the IC50 in data set [3] (setting [10]) was above 200 µM; in data set [3] (setting [11]) it was above 200 µM; in data set [3] (setting [12]), above 200 µM; in data set [4] (A-375, 24 h), above 200 µM; in data set [4] (A-375, 48 h) it was above 200 µM; in data set [4] (A-375, 72 h), above 200 µM. For the same compound, the IC50 at 24 h in data set [5] (setting [13]) and in data set [6] (setting [13]) was above 200 µM in each case. In addition, the IC50 at 48 h in data set [5] (setting [13]) and in data set [6] (setting [13]) was above 200 µM in each case. In addition, the IC50 at 72 h in data set [5] (setting [13]) and in data set [6] (setting [13]) was above 200 µM in each case.

On to `COc1cc(-c2cc(=O)c3c(O)cc(O)cc3o2)cc(OC)c1O` [Compound 31, tricin], for which the 50% inhibitory concentration (IC50) in data set [1] (C32, 24 h) was above 200 µM; in data set [1] (C32, 48 h), 100 to 200 µM; in data set [1] (C32, 72 h), 100 to 200 µM; in data set [2] (A-375, 24 h, read-out: IC50, cytotoxic activity, MTT test) it was above 200 µM; in data set [2] (A-375, 48 h, read-out: IC50, cytotoxic activity, MTT test), 100 to 200 µM; in data set [2] (A-375, 72 h, read-out: IC50, cytotoxic activity, MTT test), 100 to 200 µM. The 50% inhibitory concentration (IC50) in data set [3] (C32, 24 h, read-out: IC50, cytotoxic activity, NRU assay) is above 200 µM; in data set [3] (C32, 48 h, read-out: IC50, cytotoxic activity, NRU assay) it was above 200 µM; in data set [3] (C32, 72 h, read-out: IC50, cytotoxic activity, NRU assay), above 200 µM; in data set [4] (A-375, 24 h), above 200 µM; in data set [4] (A-375, 48 h), above 200 µM; in data set [4] (A-375, 72 h), above 200 µM. Besides, the IC50 at 24 h in data set [5] was 100 to 200 µM; in data set [6], above 200 µM. The results for the IC50 at 48 h in data set [5] and in data set [6] were 80.3 ± 6.6 µM and above 200 µM, respectively. For the same compound, the IC50 at 72 h is 56.4 ± 4.7 µM in data set [5] and above 200 µM in data set [6].

On to `O=c1c(O[C@@H]2O[C@H](CO)[C@@H](O)[C@H](O)[C@H]2O)c(-c2ccc(O)cc2)oc2cc(O)cc(O)c12` [Compound 20, kaempferol 3-O-glucoside], for which the IC50 in data set [1] (C32, 24 h) is above 200 µM; in data set [1] (C32, 48 h), above 200 µM; in data set [1] (C32, 72 h), above 200 µM; in data set [2] (setting [7]) it was 94.2 ± 6.9 µM; in data set [2] (setting [8]) it was 46.9 ± 3.5 µM; in data set [2] (setting [9]), 21.5 ± 2.2 µM. For the same compound, the concentration for half-maximal inhibition (IC50) in data set [3] (setting [10]) is above 200 µM; in data set [3] (setting [11]), above 200 µM; in data set [3] (setting [12]), above 200 µM; in data set [4] (A-375, 24 h) it was above 200 µM; in data set [4] (A-375, 48 h), above 200 µM; in data set [4] (A-375, 72 h) it was above 200 µM. In addition, the IC50 at 24 h in data set [5] (setting [13]) and in data set [6] (setting [13]) was above 200 µM each time. The IC50 at 48 h in data set [5] (setting [13]) and in data set [6] (setting [13]) was above 200 µM each time. The 50% inhibitory concentration (IC50) at 72 h in data set [5] (setting [13]) and in data set [6] (setting [13]) was above 200 µM throughout.

For the compound `COc1c(O)cc(O)c2c(=O)c(O)c(-c3ccc(O)cc3)oc12` [Compound 19, 8-methoxykaempferol], the IC50 in data set [1] (C32, 24 h) was 100 to 200 µM; in data set [1] (C32, 48 h), 100 to 200 µM; in data set [1] (C32, 72 h) it was 100 to 200 µM; in data set [2] (setting [7]), 100 to 200 µM; in data set [2] (setting [8]), 100 to 200 µM; in data set [2] (setting [9]), 61.8 ± 3.1 µM. Further, the IC50 in data set [3] (setting [10]) is 100 to 200 µM; in data set [3] (setting [11]), 88.8 ± 7 µM; in data set [3] (setting [12]), 71.9 ± 7 µM; in data set [4] (A-375, 24 h) it was 100 to 200 µM; in data set [4] (A-375, 48 h), 100 to 200 µM; in data set [4] (A-375, 72 h) it was 100 to 200 µM. Moreover, the IC50 at 24 h in data set [5] (setting [13]) and in data set [6] (setting [13]) was above 200 µM in each case. Further, the half-inhibitory concentration (IC50) at 48 h in data set [5] (setting [13]) and in data set [6] (setting [13]) was above 200 µM throughout. In addition, the results for the IC50 at 72 h in data set [5] (setting [13]) and in data set [6] (setting [13]) were 100 to 200 µM and 64.8 ± 5 µM, respectively.

As for `O=c1c(O)c(-c2cc(O)c(O)c(O)c2)oc2cc(O)ccc12` [Compound 32, robinetin], the IC50 was above 200 µM in data set [1] (C32, 24 h); above 200 µM in data set [1] (C32, 48 h); above 200 µM in data set [1] (C32, 72 h); above 200 µM in data set [2] (setting [7]); above 200 µM in data set [2] (setting [8]); 100 to 200 µM in data set [2] (setting [9]). For the same compound, the half-maximal inhibitory concentration (IC50) in data set [3] (setting [10]) is above 200 µM; in data set [3] (setting [11]), above 200 µM; in data set [3] (setting [12]), above 200 µM; in data set [4] (A-375, 24 h), above 200 µM; in data set [4] (A-375, 48 h), above 200 µM; in data set [4] (A-375, 72 h), above 200 µM. The half-maximal inhibitory concentration (IC50) at 24 h in data set [5] (setting [13]) and in data set [6] (setting [13]) was above 200 µM in each case. Also, the IC50 at 48 h in data set [5] (setting [13]) and in data set [6] (setting [13]) was above 200 µM throughout. The half-maximal inhibitory concentration (IC50) at 72 h in data set [5] (setting [13]) and in data set [6] (setting [13]) was above 200 µM each time.

Turning to `O=c1cc(-c2ccc(O)cc2)oc2cc(OC3OC(CO)C(O)C(O)C3O)cc(O)c12` (stereo not drawn) [Compound 3, apigenin 7-O-glucoside], the IC50 in data set [1] (C32, 24 h) is above 200 µM; in data set [1] (C32, 48 h), above 200 µM; in data set [1] (C32, 72 h), above 200 µM; in data set [2] (setting [7]), above 200 µM; in data set [2] (setting [8]) it was above 200 µM; in data set [2] (setting [9]), above 200 µM. For the same compound, the half-inhibitory concentration (IC50) is above 200 µM in data set [3] (setting [10]); above 200 µM in data set [3] (setting [11]); above 200 µM in data set [3] (setting [12]); above 200 µM in data set [4] (A-375, 24 h); above 200 µM in data set [4] (A-375, 48 h); above 200 µM in data set [4] (A-375, 72 h). Further, the IC50 at 24 h in data set [5] (setting [13]) and in data set [6] (setting [13]) was above 200 µM throughout. Moreover, the IC50 at 48 h in data set [5] (setting [13]) and in data set [6] (setting [13]) was above 200 µM in each case. The IC50 at 72 h in data set [5] (setting [13]) and in data set [6] (setting [13]) was above 200 µM in each case.

As to `COc1cc(O)c2c(=O)c(O)c(-c3ccc(O)c(O)c3)oc2c1` [Compound 25, 7-methoxyquercetin], the IC50 in data set [1] (C32, 24 h) was above 200 µM; in data set [1] (C32, 48 h), 100 to 200 µM; in data set [1] (C32, 72 h), 37.7 ± 2.5 µM; in data set [2] (setting [7]), 100 to 200 µM; in data set [2] (setting [8]) it was 42.1 ± 3 µM; in data set [2] (setting [9]) it was 25.1 ± 2.3 µM. For the same compound, the IC50 is above 200 µM in data set [3] (setting [10]); 55.4 ± 4.3 µM in data set [3] (setting [11]); 28.4 ± 2.5 µM in data set [3] (setting [12]); above 200 µM in data set [4] (A-375, 24 h); 63.4 ± 4.8 µM in data set [4] (A-375, 48 h); 43.7 ± 3.5 µM in data set [4] (A-375, 72 h). Further, the IC50 at 24 h in data set [5] (setting [13]) is 100 to 200 µM; in data set [6] (setting [13]), above 200 µM. Further, the results for the IC50 at 48 h in data set [5] (setting [13]) and in data set [6] (setting [13]) were 45.3 ± 2.3 µM and 66.3 ± 5.6 µM, respectively. Further, the IC50 at 72 h in data set [5] (setting [13]) came out at 35.7 ± 2.9 µM; in data set [6] (setting [13]), 38.4 ± 3.4 µM.

Turning to `CC1OC(OCC2OC(Oc3c(-c4ccc(O)c(O)c4)oc4cc(OC5OC(CO)C(O)C(O)C5O)cc(O)c4c3=O)C(O)C(O)C2O)C(O)C(O)C1O` (stereo not drawn) [Compound 29, quercetin 3-O-rutinoside-7-O-glucoside], the IC50 in data set [1] (C32, 24 h) is above 200 µM; in data set [1] (C32, 48 h), above 200 µM; in data set [1] (C32, 72 h), above 200 µM; in data set [2] (setting [7]), above 200 µM; in data set [2] (setting [8]), above 200 µM; in data set [2] (setting [9]) it was above 200 µM. The IC50 in data set [3] (setting [10]) is above 200 µM; in data set [3] (setting [11]), above 200 µM; in data set [3] (setting [12]) it was above 200 µM; in data set [4] (A-375, 24 h), above 200 µM; in data set [4] (A-375, 48 h) it was above 200 µM; in data set [4] (A-375, 72 h), above 200 µM. The IC50 at 24 h in data set [5] (setting [13]) and in data set [6] (setting [13]) was above 200 µM in each case. The 50% inhibitory concentration (IC50) at 48 h in data set [5] (setting [13]) and in data set [6] (setting [13]) was above 200 µM each time. Moreover, the IC50 at 72 h in data set [5] (setting [13]) and in data set [6] (setting [13]) was above 200 µM throughout.
